{"source": "patent US20230036051A1", "about": "“C[…] STABILITY” (priority 2021, published 2023)", "experiment": "Storage stability of THC in ground cannabis flower, non-accelerated storage conditions", "assay_type": "physicochemical", "details": "loss of THC content; positive control, amount not given", "experimental": "After analyzing initial cannabinoid content, an amount of terpene blend 1 was added to 3.5 (±0.05) g of ground flower (1, 2, or 3%, by weight of the dried cannabis) was applied to the product and stored in an air-tight container protected from light. All experiments were performed in triplicate. The testing conditions included: (1) Non-Accelerated Storage Conditions without exogenous terpenes “Control”; (2) Accelerated Conditions (+3.0% by weight hydrogen peroxide, initially, and refreshed each week) without exogenous terpenes, and (3) Accelerated Conditions with exogenous terpenes “H2O2+Terpene” (Blend 1). (FIG. 2). Butylated hydroxytoluene (BHT), a preservative used in food, known to prevent radical-mediated oxidation was employed as a positive control. Each container was opened twice/week and stirred, simulating usual conditions for access of medicinal cannabis. The cannabinoid content was analyzed after 24 and 81 days of storage.\nThe stabilizing effect was observed after 81 days (TABLE 2) and also between days 24 and 81 (TABLE 3)."}
{"smiles": "Cc1cc(C(C)(C)C)c(O)c(C(C)(C)C)c1", "note": "[BHT, Butylated hydroxytoluene]", "values": [{"measurement": "Relative % Loss 0 to 81 Days", "result": 7.90, "unit": "%"}, {"measurement": "Relative % Loss 24 to 81 Days", "result": 18.65, "unit": "%"}]}
